These results are taken from patent US20070031907A1, “Anaplastic lymphoma kinase assay, reagents and compositions thereof” (Istituto Nazionale Per Lo Studio E La Cura Dei Tumori, priority 2003, published 2007).

The assay concerns the target T1, purified rALK (Homo sapiens, UniProt Q9UM73).
T1 construct: A portion of ALK, stretching from amino acids Leu^1073 to Ala^1459, has been cloned into the baculovirus transfer vector; made in house; host or cells: Sf9 (Spodoptera frugiperda) insect cells, baculovirus (pBlueBacHis2C, MaxBac 2.0)
The experiment in a line: ELISA-based in vitro kinase assay. The assay is classed as biochemical. As to the method:
ELISA-based in vitro Kinase Assay A Nunc Immuno 96 well plate was incubated overnight at 37° C. with coating solution (125 μl/well) containing ALK peptide substrate (SEQ ID N. 1 or SEQ ID N. 2) at various concentrations in PBS. The wells were then washed with 200 μl of wash buffer (PBS-Tween 0.05%) and left to dry for at least 2 hours at 37° C. […] The reaction mix was then removed and wells were washed 5 times with 200 μl of wash buffer. Phosphorylated peptide was detected using 100 μl/well of a mouse monoclonal anti-phosphotyrosine antibody (clone 4G10 UpstateBiotech Ltd) diluted 1:500 in PBS+4% BSA. After 30 minutes incubation at room temperature the antibody was removed and wells were washed as described above. 100 μl of a secondary antibody (anti-mouse IgG, Horseradish Peroxidase linked whole antibody, from sheep, Amersham Pharmacia Biotech) diluted 1:1000 in PBS+4% BSA was added to each well and the plate was incubated again for 30 minutes at room temperature before washing as above. The plate was developed using 100 μl/well TMB Substrate Solution (Endogen) and the reaction was stopped by adding an equal volume of H2SO4 0.18 M. Finally, the absorbance was read at 450 or 490 nm using an Ultrospec® 300 spectrophotometer (Amersham-Pharmacia Biotech).
On the technique in general: ELISA stands for enzyme-linked immunosorbent assay.

Molecules are shown by their SMILES.

T1 sequence (Q9UM73 1073-1459): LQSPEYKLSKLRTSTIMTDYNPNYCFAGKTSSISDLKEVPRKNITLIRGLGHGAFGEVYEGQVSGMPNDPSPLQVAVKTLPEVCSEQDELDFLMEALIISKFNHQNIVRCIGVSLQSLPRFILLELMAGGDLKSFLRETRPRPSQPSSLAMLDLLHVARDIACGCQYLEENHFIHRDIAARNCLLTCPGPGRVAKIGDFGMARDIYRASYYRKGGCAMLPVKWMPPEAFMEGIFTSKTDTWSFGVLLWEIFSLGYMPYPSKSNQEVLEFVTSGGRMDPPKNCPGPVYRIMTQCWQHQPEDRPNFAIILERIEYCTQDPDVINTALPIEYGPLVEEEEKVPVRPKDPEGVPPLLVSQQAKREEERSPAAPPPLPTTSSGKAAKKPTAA

For `CN[C@@H]1C[C@H]2O[C@@](C)([C@@H]1OC)n1c3ccccc3c3c4c(c5c6ccccc6n2c5c31)C(=O)NC4` [Staurosporine], the “concentration reaching maximum inhibition of rALK activity” value (42 μM peptide substrate, 20 ng rALK, 30° C., 15 mins) was determined as 1 µM. Besides, the “concentration at which effective as an ALK inhibitor” value (positive control for screening) was 0.2 to 0.3 µM.
